Experimental data taken from US12186304B2, “Method for treating cancer by combination of IAP inhibitor and modulator of immune checkpoint molecule” (ASCENTAGE PHARMA (SUZHOU) CO., LTD., priority 2018, dated 2025).

Assay: Phase I study (NCT03386526): safety and tolerability
Protocol: The Phase I dose escalation study included two parts.
Pembrolizumab was administered 200 mg IV on day 1 of a 21-day-cycle, until disease progression or untolerated toxicity.
The inclusion criteria for the Phase I study are: Age≥18 years; ECOG PS: 0-1;
Adequate hematologic, renal and liver functions; Advanced or metastatic solid tumor patients must be refractory to or intolerant of existing therapy(ies) known to provide clinical benefit for their condition.

CN[C@@H](C)C(=O)N[C@H]1CN(S(=O)(=O)c2cccc(S(=O)(=O)N3CC[C@H]4CC[C@@H](C(=O)NC(c5ccccc5)c5ccccc5)N4C(=O)[C@@H](NC(=O)[C@H](C)NC)C3)c2)CC[C@H]2CC[C@@H](C(=O)NC(c3ccccc3)c3ccccc3)N2C1=O [APG-1387]
G3 above TRAEs: G3 blood bilirubin increased (60 mg monotherapy): one
G3 above TRAEs: lipase increased (60 mg monotherapy): one
# of pts discontinued treatment: Adverse Event (APG-1387 20 mg): 0
# of pts discontinued treatment: Clinical progression (APG-1387 20 mg): 0
# of pts discontinued treatment: Disease progression (APG-1387 20 mg): 2
# of pts discontinued treatment: Lack of efficacy (APG-1387 20 mg): 1
TRAEs (all Grades): Aspartate aminotransferase increased, patients (APG-1387 20 mg): 0
TRAEs (all Grades): Bell's palsy, patients (APG-1387 20 mg): 0
TRAEs (all Grades): Blood bilirubin increased, patients (APG-1387 20 mg): 0
TRAEs (all Grades): Decreased appetite, patients (APG-1387 20 mg): 0
TRAEs (all Grades): Dehydration, patients (APG-1387 20 mg): 0
TRAEs (all Grades): Diarrhoea, patients (APG-1387 20 mg): 0
TRAEs (all Grades): Dyspepsia, patients (APG-1387 20 mg): 0
TRAEs (all Grades): Eructation, patients (APG-1387 20 mg): 0
TRAEs (all Grades): Fatigue, patients (APG-1387 20 mg): 0
TRAEs (all Grades): Headache, patients (APG-1387 20 mg): 0
TRAEs (all Grades): Lipase increased, patients (APG-1387 20 mg): 0
TRAEs (all Grades): Myalgia, patients (APG-1387 20 mg): 0
TRAEs (all Grades): Nausea, patients (APG-1387 20 mg): 0
TRAEs (all Grades): Peripheral sensory neuropathy, patients (APG-1387 20 mg): 0
TRAEs (all Grades): Phlebitis, % of patients (APG-1387 20 mg): (33.3%)
TRAEs (all Grades): Phlebitis, patients (APG-1387 20 mg): 1
TRAEs (all Grades): Pneumonitis, patients (APG-1387 20 mg): 0
TRAEs (all Grades): Pruritus, % of patients (APG-1387 20 mg): (33.3%)
TRAEs (all Grades): Pruritus, patients (APG-1387 20 mg): 1
TRAEs (all Grades): Rash maculo-papular, % of patients (APG-1387 20 mg): (33.3%)
TRAEs (all Grades): Rash maculo-papular, patients (APG-1387 20 mg): 1
TRAEs (all Grades): Tumor pain, patients (APG-1387 20 mg): 0
# of pts discontinued treatment: Adverse Event (APG-1387 30 mg): 0
# of pts discontinued treatment: Clinical progression (APG-1387 30 mg): 0
# of pts discontinued treatment: Disease progression (APG-1387 30 mg): 3
# of pts discontinued treatment: Lack of efficacy (APG-1387 30 mg): 0
TRAEs (all Grades): Aspartate aminotransferase increased, patients (APG-1387 30 mg): 0
TRAEs (all Grades): Bell's palsy, patients (APG-1387 30 mg): 0
TRAEs (all Grades): Blood bilirubin increased, patients (APG-1387 30 mg): 0
TRAEs (all Grades): Decreased appetite, patients (APG-1387 30 mg): 0
TRAEs (all Grades): Dehydration, patients (APG-1387 30 mg): 0
TRAEs (all Grades): Diarrhoea, % of patients (APG-1387 30 mg): (33.3%)
TRAEs (all Grades): Diarrhoea, patients (APG-1387 30 mg): 1
TRAEs (all Grades): Dyspepsia, patients (APG-1387 30 mg): 0
TRAEs (all Grades): Eructation, patients (APG-1387 30 mg): 0
TRAEs (all Grades): Fatigue, patients (APG-1387 30 mg): 0
TRAEs (all Grades): Headache, % of patients (APG-1387 30 mg): (33.3%)
TRAEs (all Grades): Headache, patients (APG-1387 30 mg): 1
TRAEs (all Grades): Lipase increased, patients (APG-1387 30 mg): 0
TRAEs (all Grades): Myalgia, patients (APG-1387 30 mg): 0
TRAEs (all Grades): Nausea, % of patients (APG-1387 30 mg): (33.3%)
TRAEs (all Grades): Nausea, patients (APG-1387 30 mg): 1
TRAEs (all Grades): Peripheral sensory neuropathy, patients (APG-1387 30 mg): 0
TRAEs (all Grades): Phlebitis, patients (APG-1387 30 mg): 0
TRAEs (all Grades): Pneumonitis, patients (APG-1387 30 mg): 0
TRAEs (all Grades): Pruritus, patients (APG-1387 30 mg): 0
TRAEs (all Grades): Rash maculo-papular, patients (APG-1387 30 mg): 0
TRAEs (all Grades): Tumor pain, patients (APG-1387 30 mg): 0
# of pts discontinued treatment: Adverse Event (APG-1387 45 mg): 1
# of pts discontinued treatment: Clinical progression (APG-1387 45 mg): 1
# of pts discontinued treatment: Disease progression (APG-1387 45 mg): 8
# of pts discontinued treatment: Lack of efficacy (APG-1387 45 mg): 1
TRAEs (all Grades): Aspartate aminotransferase increased, % of patients (APG-1387 45 mg): (7.7%)
TRAEs (all Grades): Aspartate aminotransferase increased, patients (APG-1387 45 mg): 1
TRAEs (all Grades): Bell's palsy, % of patients (APG-1387 45 mg): (7.7%)
TRAEs (all Grades): Bell's palsy, patients (APG-1387 45 mg): 1
TRAEs (all Grades): Blood bilirubin increased, patients (APG-1387 45 mg): 0
TRAEs (all Grades): Decreased appetite, % of patients (APG-1387 45 mg): (15.4%)
TRAEs (all Grades): Decreased appetite, patients (APG-1387 45 mg): 2
TRAEs (all Grades): Dehydration, % of patients (APG-1387 45 mg): (7.7%)
TRAEs (all Grades): Dehydration, patients (APG-1387 45 mg): 1
TRAEs (all Grades): Diarrhoea, patients (APG-1387 45 mg): 0
TRAEs (all Grades): Dyspepsia, % of patients (APG-1387 45 mg): (7.7%)
TRAEs (all Grades): Dyspepsia, patients (APG-1387 45 mg): 1
TRAEs (all Grades): Eructation, patients (APG-1387 45 mg): 0
TRAEs (all Grades): Fatigue, % of patients (APG-1387 45 mg): (23.1%)
TRAEs (all Grades): Fatigue, patients (APG-1387 45 mg): 3
TRAEs (all Grades): Headache, patients (APG-1387 45 mg): 0
TRAEs (all Grades): Lipase increased, patients (APG-1387 45 mg): 0
TRAEs (all Grades): Myalgia, % of patients (APG-1387 45 mg): (7.7%)
TRAEs (all Grades): Myalgia, patients (APG-1387 45 mg): 1
TRAEs (all Grades): Nausea, % of patients (APG-1387 45 mg): (7.7%)
TRAEs (all Grades): Nausea, patients (APG-1387 45 mg): 1
TRAEs (all Grades): Peripheral sensory neuropathy, % of patients (APG-1387 45 mg): (7.7%)
TRAEs (all Grades): Peripheral sensory neuropathy, patients (APG-1387 45 mg): 1
